{"source": "patent US20240355418A1", "about": "“MULTIPLEX, TEMPORALLY RESOLVED MOLECULAR SIGNAL RECORDER AND RELATED METHODS” (University of Washington, priority 2021, published 2024)", "molecules": {"B1": {"name": "5×TAPE-1: TAPE-1 array with five monomers, SEQ ID NO: 60 (nucleic acid)", "DNA": "GGATGATGGTGAGCACGTGATGGTGAGCACGTGATGGTGAGCACGTGATGGTGAGCACGTGATGGTGAGCACGTGATGGTGAGC", "modifications": "listed as DNA, chemistry not fully specified; the letters are possibly those of the target site"}}, "key": {"[1]": {"tested_on": "HEK293T cells", "experiment": "DNA Typewriter: sequential prime editing of integrated TAPE-1 arrays, pegRNA pool + PE2, amplicon sequencing", "assay_type": "cell-based", "details": "for Overall editing rate: reads exhibiting any editing, of all reads: pegRNA pool + PE2, four days", "description": "To test this idea, DNA Tape (“TAPE-1”) was designed by modifying a spacer sequence previously shown to be highly amenable to prime editing by the PE2 enzyme (HEK293 target 3 or HEK3). In TAPE-1, a 3-bp key (GGA) is followed by one tandem array of a 14-bp monomer (TGATGGTGAGCACG) (SEQ ID NO: 57) that includes the PAM sequence (TGG) at positions 4-6. At the 5′-most end of the TAPE-1 array, the key sequence, the first 14-bp monomer, and the first 6 bases of the subsequent 14-bp monomer, collectively comprise an intact 20-bp spacer and PAM (FIG. 1A). A set of 16 pegRNAs was further designed to target TAPE-1, with each pegRNA programming a distinct 5-bp insertion (FIG. 1B). The first 2-bp of the insertion is unique to each of the 16 pegRNAs. The remaining 3-bp of the insertion corresponds to the key (GGA). The inventors reasoned that when a pegRNA/PE2-mediated insertion occurred at the active TAPE-1 site, it would: (1) record the identity of the pegRNA via the 2-bp portion of the insertion; (2) inactivate the current active site by disrupting its sequence; and (3) activate the next monomer along the array, as the newly inserted GGA key, together with the subsequent […], creates an intact 20-bp spacer and PAM. In the next iteration of genome editing, a pegRNA-mediated insertion to the second monomer would be recorded while also moving the type-guide to the third monomer, and then to the fourth, the fifth, and so on (FIG. 1C).\nTAPE-1 arrays were synthesized and cloned with varying numbers of monomer units (2×TAPE-1, 3×TAPE-1, 5×TAPE-1), and stably integrated these arrays into the genome of HEK293T cells via the piggyBAC system. The resulting cells were transiently transfected with a pool of plasmids designed to express PE2 (pCMV-PE2-P2A-GFP; Addgene #132776) and sixteen pegRNAs, each programmed to insert an NNGGA barcode to TAPE-1, and harvested them after four days. The TAPE-1 region was PCR-amplified from genomic DNA and sequenced.\nFor each TAPE-1 array, the sequencing reads were categorized into those in which: (1) no editing occurred; (2) the observed pattern was consistent with sequential, directional editing; or (3) the observed pattern was inconsistent with sequential, directional editing (FIG. 1D-F; Table 1). […] However, within the set of reads showing edits, the data were overwhelmingly consistent with sequential, directional editing. For example, with 2×TAPE-1, the second monomer was edited in 22.8±1.7% of reads in which the first monomer was also edited (FIG. 1D). In contrast, the second monomer was only edited in 0.6% of reads in which the first monomer was not edited. […] Data obtained from 3×TAPE-1 and 5×TAPE-1 were also consistent with sequential genome editing. For example, 98.5% (3×TAPE-1) and 99.0% (5×TAPE-1) of reads that were edited at the second monomer were also edited at the first monomer, while 97.6% (3×TAPE-1) and 98.8% (5×TAPE-1) of reads that were edited at the third monomer were also edited at the first and second monomers (FIG. 1E-1F).\nTable 1. Read counts and editing efficiencies for 2×TAPE-1, 3×TAPE-1, and 5×TAPE-1. Sequencing reads were grouped based on the observed editing pattern. For example, reads from 2×TAPE-1 array were categorized into four groups: (A) no edit at either TAPE-1 site (‘OO’); (B) 5-bp insertion at the first TAPE-1 site only (‘XO’); (C) 5-bp insertion at the second TAPE-1 site only (‘OX’); or (D) 5-bp insertions at both TAPE-1 sites (‘XX’). For reads from 5×TAPE-1 array, editing groups were simplified by categorizing directional and iterative editing pattern (OOOOO, XO, XXO, XXXO, XXXXO, and XXXXX) and the erroneous editing patterns (OX, NOX, NNOX, and NNNOX, where N can be either O or X). Editing efficiencies at each site were calculated as the fraction of reads with an edit at the site over the total number of reads in which the site had been activated via insertion of the ‘key’ that completed the spacer sequence. […]"}, "[2]": {"tested_on": "HEK293T cells", "experiment": "Screen of 48 3×TAPE constructs: efficiency and sequential error rate", "assay_type": "cell-based", "description": "In each of these 48 constructs, a 3×TAPE region was accompanied by a pegRNA-expressing cassette designed to target it with a 4-6 bp insertion (16 possible 2-bp barcodes followed by a 2-4 bp key sequence). HEK293T cells were transiently transfected with PE2-encoding plasmid and a pool of 48 pegRNA-by-3×TAPE constructs and harvested them after four days. The 3×TAPE region was PCR-amplified from genomic DNA and sequenced.\nTwo quantities were calculated for each 3×TAPE array: (1) efficiency, calculated by summing all edited reads and dividing by the total number of reads; and (2) sequential error rate, calculated by summing all edited reads inconsistent with sequential, directional editing and dividing by the total number of edited reads (FIG. 7B). […] Indeed, across the full experiment, a longer key sequence was associated with a lower sequential error rate (FIG. 7C). […] Performance characteristics were highly consistent when the experiment was repeated with integration rather than transient transfection of the constructs (FIG. 7E)."}, "[3]": {"details": "5-bp insertions, conditional on site activated, per replicate, listed as 3xTAPE-1"}, "[4]": {"details": "5-bp insertions, conditional on site activated, per replicate, listed as 5xTAPE-1"}, "[5]": {"details": "6-bp ins., per replicate, listed as 5xTAPE-1"}}, "note": "Where “and” joins values, the source holds several entries; their conditions need not be identical. Equal entries are not always repeated."}
{"molecule": "2×TAPE-1: TAPE-1 array with two monomers, SEQ ID NO: 58 (DNA GGATGATGGTGAGCACGTGATGGTGAGCACGTGATGGTGAGC; listed as DNA, chemistry not fully specified; the letters are possibly those of the target site)", "values": [{"measurement": "Second monomer edited, in reads in which the first monomer was also edited", "setting": "[1]", "result": "22.8±1.7", "unit": "%"}, {"measurement": "Second monomer edited, in reads in which the first monomer was not edited", "setting": "[1]", "result": 0.6, "unit": "%"}, {"measurement": "Editing efficiencies: Site 2", "setting": "[1]; 5-bp insertions, conditional on site activated, per replicate, listed as 2xTAPE-1", "result": "0.211 and 0.244 and 0.229"}, {"measurement": "Editing efficiencies: Site 1", "setting": "[1]; 5-bp insertions, fraction of reads edited at the site over reads in which the site was activated, per transfection replicate, listed as 2xTAPE-1", "result": "0.053 and 0.044 and 0.043"}, {"measurement": "Overall editing rate: reads exhibiting any editing, of all reads", "setting": "[1]", "result": "4.7±0.5", "unit": "%"}]}
{"molecule": "3×TAPE-1: TAPE-1 array with three monomers, SEQ ID NO: 59 (DNA GGATGATGGTGAGCACGTGATGGTGAGCACGTGATGGTGAGCACGTGATGGTGAGC; listed as DNA, chemistry not fully specified; the letters are possibly those of the target site)", "values": [{"measurement": "Reads edited at the second monomer that were also edited at the first monomer", "setting": "[1]", "result": 98.5, "unit": "%"}, {"measurement": "Reads edited at the third monomer that were also edited at the first and second monomers", "setting": "[1]", "result": 97.6, "unit": "%"}, {"measurement": "Editing efficiencies: Site 2", "setting": "[1]; [3]", "result": "0.237 and 0.231 and 0.240"}, {"measurement": "Editing efficiencies: Site 3", "setting": "[1]; [3]", "result": "0.170 and 0.189 and 0.221"}, {"measurement": "Editing efficiencies: Site 1", "setting": "[1]; 5-bp insertions, fraction of reads edited at the site over reads in which the site was activated, per transfection replicate, listed as 3xTAPE-1", "result": "0.059 and 0.051 and 0.047"}, {"measurement": "Overall editing rate: reads exhibiting any editing, of all reads", "setting": "[1]", "result": "5.2±0.6", "unit": "%"}]}
{"molecule": "TAPE-6: DNA Tape design from HEK3 with 4-bp key, SEQ ID NO: 7 (DNA GGACTGATGGTGAGACGTGATGGTGAGACG; listed as DNA, chemistry not fully specified; the letters are possibly those of the target site)", "values": [{"measurement": "Sequential error rate (in words)", "setting": "[2]; 48 tested tapes", "result": "lower sequential error rate than TAPE-1"}]}
{"molecule": "TAPE-27: DNA Tape design, FANCF-based spacer, SEQ ID NO: 32 (DNA GAGATCCGGTCTGCAGCATCCGGTCTGCAGC; listed as DNA, chemistry not fully specified; the letters are possibly those of the target site)", "values": [{"measurement": "Greater efficiency than TAPE-1", "setting": "[2]; 3×TAPE", "result": "over 50%"}, {"measurement": "Greater sequential error rate than TAPE-1", "setting": "[2]; 3×TAPE", "result": 2, "unit": "fold"}]}
{"molecule": "B1", "values": [{"measurement": "Reads edited at the second monomer that were also edited at the first monomer", "setting": "[1]", "result": 99.0, "unit": "%"}, {"measurement": "Reads edited at the third monomer that were also edited at the first and second monomers", "setting": "[1]", "result": 98.8, "unit": "%"}, {"measurement": "Editing efficiencies: Site 2", "setting": "[1]; [4]", "result": "0.210 and 0.212 and 0.206"}, {"measurement": "Editing efficiencies: Site 3", "setting": "[1]; [4]", "result": "0.151 and 0.144 and 0.154"}, {"measurement": "Editing efficiencies: Site 4", "setting": "[1]; [4]", "result": "0.129 and 0.119 and 0.150"}, {"measurement": "Editing efficiencies: Site 5", "setting": "[1]; [4]", "result": "0.098 and 0.194 and 0.175"}, {"measurement": "Editing efficiencies: Site 1", "setting": "[1]; 5-bp insertions, fraction of reads edited at the site over reads in which the site was activated, per transfection replicate, listed as 5xTAPE-1", "result": "0.066 and 0.059 and 0.051"}, {"measurement": "Editing efficiencies: Site 1", "setting": "[1]; [5]", "result": "0.055 (2×) and 0.057"}, {"measurement": "Editing efficiencies: Site 2", "setting": "[1]; [5]", "result": "0.180 and 0.177 and 0.181"}, {"measurement": "Editing efficiencies: Site 3", "setting": "[1]; [5]", "result": "0.083 and 0.078 and 0.089"}, {"measurement": "Editing efficiencies: Site 4", "setting": "[1]; [5]", "result": "0.099 and 0.059 and 0.265"}, {"measurement": "Editing efficiencies: Site 5", "setting": "[1]; [5]", "result": "0.364 and 0.900 and 0.000"}, {"measurement": "Overall editing rate: reads exhibiting any editing, of all reads", "setting": "[1]", "result": "5.9±0.8", "unit": "%"}]}
